Assays:
TNF = experiment: PBMC assay: TNF cytokine level after LPS stimulation; assay type: cell-based; conditions: human PBMCs, 100 ng/ml LPS for 6 hrs, MSD, read-out: TNFα EC50
Procedure: (§1) Peripheral venous blood was collected from healthy individuals and human peripheral blood mononuclear cells (PBMCs) were isolated from blood by Ficoll-Histopaque (Sigma-Aldrich, A0561) density gradient centrifugation. After isolation, PBMCs were stored in liquid nitrogen for later use. Upon thawing, PBMC cell viability was determined in growth medium (RPMI media supplemented with 10% fetal bovine serum, 1% Pen-Strep and 1% L-glutamine). […] PBMCs were added at a density of 7.5×10^4 cells per well and incubated for 30 min in a 5% CO2 incubator at 37° C. LPS stimulation was performed by addition of 100 ng/ml LPS (final concentration, Invivogen, tlrl-smlps) for 6 hrs followed by collection of cellular supernatant and the analysis of IL-1β (μM) and TNF cytokines levels (μM) via MSD technology according to manufacturers' guidelines (MSD, K151A0H).

[1] = tested on: NLRP3 inflammasome pathway (IL-1β); experiment: PBMC assay: IL-1β release after LPS stimulation; assay type: cell-based; conditions: human PBMCs, 100 ng/ml LPS for 6 hrs, MSD
Procedure: The activity of a compound according to the present invention can be assessed by in vitro methods.
as §1

SMILES | EC50 (TNF) | IC50 [1] | melting point
CCn1nc(CC(=O)Nc2ccc3ncn(C)c3n2)c(=O)c2ccc(C(F)(F)F)cc21 [F-57] | > 20 µM | 0.514 µM | 237.8 °C
CCn1nc(CC(=O)Nc2ccc3nccn3n2)c(=O)c2ccc(C3CC3)cc21 [F-62] | > 20 µM | 0.275 µM | 193.4 °C
O=C(Cc1nn(C2CC2)c2cc(Br)ccc2c1=O)Nc1ccc2nccn2n1 [F-66] | > 20 µM | 0.23 µM | 244.6 °C
CCn1nc(CC(=O)Nc2ccc3nncn3c2)c(=O)c2ccc(C(C)(F)F)cc21 [F-68] | > 20 µM | 0.2 µM | 279.8 °C
O=C(Cc1nn(C2CC2)c2cc(Br)ccc2c1=O)Nc1ccc2nncn2c1 [F-71] | > 20 µM | 0.105 µM | 310 °C
CC(C)n1nc(CC(=O)Nc2ccc(C3CC3)nn2)c(=O)c2ccc(C(F)(F)F)cc21 [F-86] | > 20 µM | 12.9 µM | 185.8 °C
CC(C)n1nc(CC(=O)Nc2nc3ccccc3n2C)c(=O)c2ccc(C(F)(F)F)cc21 [F-91] | > 20 µM | > 20 µM | 214.7 °C
CC(C)n1nc(CC(=O)Nc2nc3ccc(C#N)cc3n2C)c(=O)c2ccc(C(F)(F)F)cc21 [F-92] | > 20 µM | > 20 µM | 242.9 °C
CC(C)n1nc(CC(=O)Nc2nc3ccc(Br)cc3n2C)c(=O)c2ccc(C(F)(F)F)cc21 [F-93] | > 20 µM | > 20 µM | 219.5 °C
Cc1ccc2c(c1)nc(NC(=O)Cc1nn(C(C)C)c3cc(C(F)(F)F)ccc3c1=O)n2C [F-94] | > 20 µM | > 20 µM | 217.3 °C
CC(C)n1nc(CC(=O)Nc2nc3ccc(F)cc3n2C)c(=O)c2ccc(Br)cc21 [F-96] | > 20 µM | > 20 µM | 229.8 °C
CC(C)n1nc(CC(=O)Nc2nc3cc(F)ccc3n2C)c(=O)c2ccc(Br)cc21 [F-97] | > 20 µM | > 20 µM | 245.3 °C
CC(C)n1nc(CC(=O)Nc2nc3cc(F)ccc3n2C)c(=O)c2ccc(C(F)(F)F)cc21 [F-98] | > 20 µM | > 20 µM | 222.5 °C
CC(C)n1nc(CC(=O)Nc2nc3ccccc3n2C)c(=O)c2ccc(Br)cc21 [F-100] | > 20 µM | 18.2 µM | 205.6 °C
CC(C)n1nc(CC(=O)Nc2nc3cc(C#N)ccc3n2C)c(=O)c2ccc(C(F)(F)F)cc21 [F-101] | ~16.5 µM | 15 µM | 243.8 °C
CC(C)n1nc(CC(=O)Nc2nc3cc(Cl)ccc3o2)c(=O)c2ccc(Br)cc21 [F-104] | > 20 µM | 2.48 µM | 199 °C
CCn1nc(CC(=O)Nc2cn3cnnc3cn2)c(=O)c2ccc(C(F)(F)F)cc21 [F-106] | > 20 µM | 1.45 µM | 280.2 °C
O=C(Cc1nn(C2CC2)c2cc(C(F)(F)F)ccc2c1=O)Nc1cn2cnnc2cn1 [F-107] | > 20 µM | 1.14 µM | 270.9 °C
CC(C)n1nc(CC(=O)Nc2nc3ccccc3o2)c(=O)c2ccc(C(F)(F)F)cc21 [F-110] | > 20 µM | 0.9 µM | 187.4 °C
O=C(Cc1nn(C2CC2)c2cc(Br)ccc2c1=O)Nc1cn2cnnc2cn1 [F-113] | > 20 µM | 0.513 µM | 277.2 °C
CC(C)n1nc(CC(=O)Nc2nc3ncccn3n2)c(=O)c2ccc(C(F)(F)F)cc21 [F-114] | > 20 µM | 0.33 µM | 259.7 °C
CCn1nc(CC(=O)Nc2ccc3nncn3n2)c(=O)c2ccc(C3CCC3)cc21 [F-136] | 14.1 µM | 1.03 µM | 136.4 °C
CC(C)n1nc(CC(=O)Nc2ccc3nncn3n2)c(=O)c2ccc(C(C)(F)F)cc21 [F-145] | 4.32 µM | 0.077 µM | 214.1 °C
CC(C)n1nc(CC(=O)Nc2ccc3nncn3n2)c(=O)c2ccc(C(C)(C)F)cc21 [F-147] | 2.34 µM | 0.051 µM | 188.2 °C

Results, then the compound that gave them:

EC50 (TNF) | IC50 [1] | melting point | SMILES
15.8 µM | 0.37 µM | 190.1 °C | CC(C)c1ccc2c(=O)c(CC(=O)Nc3ccc4nccn4n3)nn(C3CC3)c2c1 [F-58]
~12.8 µM | 0.35 µM | 193 °C | CCn1nc(CC(=O)Nc2ccc3nccn3n2)c(=O)c2ccc(C(F)(F)F)cc21 [F-60]
> 20 µM | 0.29 µM | 216.4 °C | O=C(Cc1nn(C2CC2)c2cc(C(F)(F)F)ccc2c1=O)Nc1ccc2nccn2n1 [F-61]
7.89 µM | 0.26 µM | 188.9 °C | CC(F)(F)c1ccc2c(=O)c(CC(=O)Nc3ccc4nccn4n3)nn(C3CC3)c2c1 [F-64]
> 20 µM | 0.22 µM | 145.4 °C | CC(F)(F)c1ccc2c(=O)c(CC(=O)Nc3ccc4nncn4c3)nn(C3CC3)c2c1 [F-67]
7.84 µM | 0.147 µM | 252.9 °C | CCn1nc(CC(=O)Nc2ccc3nncn3n2)c(=O)c2ccc(C(C)(F)F)cc21 [F-70]
12.5 µM | 0.4 µM | 238.2 °C | CCn1nc(CC(=O)Nc2ccc3nncn3c2)c(=O)c2ccc(C(C)(C)F)cc21 [F-74]
14.6 µM | 0.52 µM | 256.8 °C | CC(C)n1nc(CC(=O)Nc2ccc3nncn3c2)c(=O)c2ccc(C(C)(C)F)cc21 [F-75]
> 20 µM | 15.3 µM | 177.9 °C | CC(C)n1nc(CC(=O)Nc2ccc(I)nn2)c(=O)c2ccc(C(F)(F)F)cc21 [F-85]
> 20 µM | > 20 µM | 217.4 °C | Cc1ccc2nc(NC(=O)Cc3nn(C(C)C)c4cc(C(F)(F)F)ccc4c3=O)n(C)c2c1 [F-95]
> 20 µM | > 20 µM | 221.8 °C | CC(C)n1nc(CC(=O)Nc2nc3ccc(F)cc3n2C)c(=O)c2ccc(C(F)(F)F)cc21 [F-99]
> 20 µM | 0.985 µM | 257.9 °C | CC(F)(F)c1ccc2c(=O)c(CC(=O)Nc3cn4cnnc4cn3)nn(C3CC3)c2c1 [F-108]
> 20 µM | 0.62 µM | 203.3 °C | CC(C)n1nc(CC(=O)Nc2nc3ccccc3o2)c(=O)c2ccc(Br)cc21 [F-111]
> 20 µM | 0.892 µM | 248.9 °C | CC(C)n1nc(CC(=O)Nc2ccc3nnc(Cl)n3n2)c(=O)c2ccc(C(F)(F)F)cc21 [F-132]
> 20 µM | 0.21 µM | 215.7 °C | O=C(Cc1nn(C2CC2)c2cc(C(F)(F)F)ccc2c1=O)Nc1ccc2nncn2n1 [F-139]
9.77 µM | 0.12 µM | 223 °C | CCn1nc(CC(=O)Nc2ccc3nncn3n2)c(=O)c2ccc(C3CC3)cc21 [F-141]
4.67 µM | 0.142 µM | 179.8 °C | CCC(C)n1nc(CC(=O)Nc2ccc3nncn3n2)c(=O)c2ccc(C(F)(F)F)cc21 (stereo not drawn) [F-146]
4.58 µM | 0.513 µM | 168.8 °C | CC(C)n1nc(CC(=O)Nc2ccc3nncn3n2)c(=O)c2ccc(C3CCC3)cc21 [F-148]

Source: patent US20230391756A1, “NEW COMPOUND” (JANSSEN PHARMACEUTICA NV, priority 2020, published 2023)
